In US20080234188A1, “Antimicrobial Peptides” (The Hospital for Sick Children, priority 2001, published 2008):
Values after ≈ are worked out from the molar mass of the structure shown. Where a SMILES comes first, the peptide text is derived from it.

Assays:
Human RBC = format: cell-based
Method in brief: (§1)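 Washed rabbit or human erythrocytes (4% v/v in PBS pH 7.3) incubated with peptide dilutions 1 h at 37° C. Hemoglobin release read at 540 nm in supernatant, relative to PBS control and 0.1% Triton X-100 as 100% lysis; peptides tested at […].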

Rabbit RBC = format: cell-based
Method in brief: as §1

P. aeruginosa ATCC27853 = format: cell-based, Pseudomonas aeruginosa
From the text: (§2) The bacterial strains used were E. coli C498, E. coli C500, Escherichia coli UB1005 and its antibiotic supersusceptible derivative DC2 (22); a clinical isolate of Staphylococcus epidermidis (C621); coryneform bacterial strain Corynebacterium xerosis (C875); and E. coli ATCC 25922, Staphylococcus aureus ATCC 25923, Enterococcus faecalis ATCC 29212, Bacillus subtilis ATCC 6633 and Pseudomonas aeruginosa ATCC 27853, all from American Type Culture Collection.
(§3) Peptide antibacterial activity was assessed by the method of R. Hancock et al. (Wu & Hancock (1999), J. Biol. Chem., v. 274, pp. 29-35). Test strains of bacteria from Mueller Hinton agar (MHA) plates were inoculated into 5 ml Mueller Hinton Broth (MHB) in tubes and grown overnight at 37° C. on a shaker (180 rpm). Serial dilutions of test peptides (at 10 times the required test concentrations) were made in 0.01% acetic acid, 0.2% BSA, in polypropylene or coated glass tubes as follows: the test peptide was (a) dissolved in distilled water at 20 times the required maximum concentration (enough final volume for all tests to be performed on a given day); (b) diluted into an equal volume of 0.02% acetic acid, 0.4% BSA to give 10 times the required maximum concentration; (c) serial doubling dilutions were performed in 0.01% acetic acid, 0.2% BSA to provide serial dilutions of peptides at 10 times the required test concentrations, e.g., 640, 320, 160, . . . 2.5 μg/ml. (No deleterious effects of long-term storage of peptides in these media have been detected). Overnight bacterial cultures were diluted in MHB to give 2−7×10^5 colony forming units/ml. Bacterial suspension (100 μl) was dispensed in each well; controls without bacteria were maintained in parallel. To each well was added 11 μl of 10× test peptide and plates were incubated at 37° C. for 18-24 hours, and checked again at 40-48 hours. Plates were read visually and at 600 nm in a microplate reader (Molecular Devices).
(§4) A further number of the peptides of the invention were tested for antimicrobial activity against a range of Gram-positive and Gram-negative bacteria by the assay described immediately before Example 1.

B. subtilis ATCC6633 = format: cell-based, Bacillus subtilis
From the text: as §2, §3, §4

E. coli ATCC25922 = format: cell-based
From the text: as §2, §3, §4

E. coli DC2 = assay: Assay of antibacterial activity (MIC), E. coli DC2; format: cell-based, Escherichia coli
Method in brief: (§5)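 Broth microdilution in Mueller Hinton broth, 2−7×10^5 CFU/ml, peptides serially doubled in 0.01% acetic acid/0.2% BSA. Incubation 37° C for 18-24 h, rechecked at 40-48 h; MIC read visually and at 600 nm.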

E. faecalis ATCC29212 = format: cell-based, Enterococcus faecalis
From the text: as §2, §3, §4

S. aureus ATCC25923 = format: cell-based, Staphylococcus aureus
From the text: as §2, §3, §4

[1] = system: Corynebacterium xerosis (C875); format: cell-based
Method in brief: (§6)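 Broth microdilution in Mueller Hinton Broth, inoculum 2−7×10^5 CFU/ml. Peptides serially doubled in 0.01% acetic acid, 0.2% BSA and added at 10× final concentration. Incubation 37° C for 18-24 h, rechecked at 40-48 h; growth read visually and at 600 nm.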

[2] = system: Staphylococcus epidermidis (C621); format: cell-based; conditions: C621
Method in brief: as §6

[3] = system: C500: E. coli, antibiotic strain; format: cell-based; conditions: C500: , antibiotic strain
Method in brief: (§7)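 Broth microdilution in Mueller Hinton Broth, 2−7×10^5 CFU/ml, peptides added from 10× stocks serially diluted in 0.01% acetic acid, 0.2% BSA. Incubated at 37° C for 18-24 hours, rechecked at 40-48 hours; growth read visually and at 600 nm.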

[4] = system: C498: E. coli, wild type strain; format: cell-based; conditions: C498: , wild type strain
Method in brief: as §7

E. coli UB1005 = format: cell-based, Escherichia coli; conditions: UB1005
Method in brief: as §5

## C[C@H](NC(=O)[C@H](C)NC(=O)[C@H](C)NC(=O)[C@H](Cc1ccccc1)NC(=O)[C@H](C)NC(=O)[C@H](C)NC(=O)[C@H](C)NC(=O)[C@H](CCCCN)NC(=O)[C@@H](N)CCCCN)C(=O)N[C@@H](C)C(=O)N[C@@H](C)C(=O)N[C@@H](Cc1ccccc1)C(=O)N[C@@H](C)C(=O)N[C@@H](C)C(=O)N[C@@H](Cc1c[nH]c2ccccc12)C(=O)N[C@@H](C)C(=O)N[C@@H](C)C(=O)N[C@@H](Cc1ccccc1)C(=O)N[C@@H](C)C(=O)N[C@@H](C)C(=O)N[C@@H](C)C(=O)N[C@@H](CCCCN)C(=O)N[C@@H](CCCCN)C(=O)N[C@@H](CCCCN)C(=O)N[C@@H](CCCCN)C(N)=O [Peptide F25] (H-KKAAAFAAAAAFAAWAAFAAAKKKK-NH2; N-terminus assumed)
Human RBC
  Human RBC (% lysis) 50 μM: 0 % lysis
  Human RBC (% lysis) 200 μM: 1 % lysis
Rabbit RBC
  Rabbit RBC (% lysis) 50 μM: 0 % lysis
  Rabbit RBC (% lysis) 200 μM: 4 % lysis
P. aeruginosa ATCC27853
  MIC P. aeruginosa ATCC27853: 8 µM (≈ 19.8 µg/mL)
B. subtilis ATCC6633
  MIC B. subtilis ATCC6633: 1 µM (≈ 2.48 µg/mL)
E. coli ATCC25922
  MIC E. coli ATCC25922: >32 µM
E. coli DC2; Table 3, Gram-negative
  MIC E. coli DC2: 4 µM (≈ 9.92 µg/mL)
E. coli DC2; Table 5A
  MIC E. coli DC2: 4 µM (≈ 9.92 µg/mL)
E. faecalis ATCC29212
  MIC E. faecalis ATCC29212: >32 µM
S. aureus ATCC25923
  MIC S. aureus ATCC25923: >32 µM
[1]
  MIC C875: 0.25 µM (≈ 0.62 µg/mL)
  MIC C. xerosis C875: <0.25 µM
[2]
  MIC C621: 0.5 to 2 µM
  MIC S. epidermidis C621: 2 µM (≈ 4.96 µg/mL)
[3]
  MIC C500: 4 µM (≈ 9.92 µg/mL)
[4]
  MIC C498: 8 µM (≈ 19.8 µg/mL)
E. coli UB1005
  MIC E. coli UB1005: 16 µM (≈ 39.7 µg/mL)
